Here are results for 1 compound from patent publication EP4778921A1, “SALT FORM AND CRYSTAL FORM OF NITROGEN-CONTAINING HETEROCYCLIC DERIVATIVE INHIBITOR, AND PREPARATION METHOD THEREFOR AND USE THEREOF” (Shanghai Hansoh Biomedical Co., Ltd., priority 2023, dated 2025).

Type in all cases: physicochemical
Data set [1] in a line: Hygroscopicity experiment (crystal forms of salts and crystal form A of free base). An excerpt: • 2.1 Experimental objective: The hygroscopicity of different crystal forms of salts of the compound was investigated under various relative humidity conditions to provide a basis for screening and storage of the crystal forms of salts of the compound. • 2.2 Experimental scheme: The crystal forms of salts of the compound were placed in saturated water vapor at different relative humidities to reach a dynamic equilibrium between the compound and the water vapor.
3.1 Experimental objective: The hygroscopicity of crystal form A of free base of the compound was investigated under various relative humidity conditions to provide a basis for screening and storage of the crystal forms of the compound.
3.2 Experimental scheme: The crystal form A of free base of the compound was placed in saturated water vapor at different relative humidities to reach a dynamic equilibrium between the compound and the water vapor. The percentage weight gain of the compound due to moisture absorption was calculated after the equilibrium.

The nature of data set [2]: Stability experiment of solid crystal form A of free base. The conditions noted are these: 60°C; room temperature, 92.5% RH; 50°C, RH = 75%; 5, 10, 20 and 30 days. On the procedure:
2.1 Experimental objective: To investigate the physical and chemical stability for crystal form A of free base under the conditions of a high temperature of 60°C, room temperature and a high humidity of 92.5% RH and 50°C, RH = 75% for 5, 10, 20 and 30 days and provide a basis for the storage of the compound.
2.2 Experimental scheme: About 2 mg of crystal form A of free base was taken and investigated under the conditions of 60°C in an oven, room temperature and a high humidity of RH = 92.5%, and 50°C, RH = 75% for 5, 10, 20 and 30 days. The content was determined by HPLC and an external standard method, and the changes of related substances were calculated by a chromatographic peak area normalization method (see 1.2.3 for the chromatographic conditions).

The nature of data set [3]: Solubility experiments in different media, crystal form A of free base. The conditions noted are these: thermodynamic from solid. The protocol:
4.1 Experimental objective: The solubility of the crystal form A of free base in media such as pH1 buffer, artificial simulated gastric fluid (FaSSGF), fasted-state artificial simulated intestinal fluid (FaSSIF), and fed-state artificial simulated intestinal fluid (FeSSIF) was tested to provide a basis for the evaluation of the potential of the crystal form being manufactured as a drug.
4.2 Experimental scheme: About 1.0 mg of crystal form A of free base was weighed into 2 mL glass vials, and pH1 buffer solution, fasted-state artificial simulated intestinal fluid (FaSSIF), fed-state artificial simulated intestinal fluid (FeSSIF), and fasted-state simulated gastric fluid (FaSSGF) (1 mL for each medium) were added to each vial, respectively. The vials were placed on a micromixer for shaking overnight with the temperature set at 37°C. After 24 h, the sample solutions were filtered through 0.45 µm nylon filter membranes, and the filtrates were collected. The concentrations were determined by an external standard method and HPLC.

In brackets after ≈: the same amount, converted by molar mass.

Usually solubility stands for the dissolved amount per volume that the medium holds. Lower therefore signals little dissolved substance.

Consider `CC(C)c1c(F)cc(N2C[C@H](N(C)S(C)(=O)=O)[C@H]2C)c2cnc(Nc3ccnc(-c4cn(C)nc4Cl)n3)cc12` [crystal form A of free base, N-((2R,3S)-1-(3-((2-(3-chloro-1-methyl-1H-pyrazol-4-yl)pyrimidin-4-yl)amino)-6-fluoro-5-isopropylisoquinolin-8-yl)-2-methylazetidin-3-yl)-N-methylmethanesulphonamide], for which the “weight gain after moisture absorption” value in data set [1] (RH 80%) is “about 0.1719%”. Moreover, the hygroscopicity result in data set [1] (RH 80%, result in words) is recorded as “weak hygroscopicity”. The “crystal form transformation (XRPD pattern)” value in data set [1] (after 1 cycle of moisture absorption and desorption, 0-95% relative humidity) was “no crystal form transformation occurred”. Further, the stability entry in data set [2] is “excellent stability”. The solubility at 24 h in data set [3] (fassgf or other biorelevant, FaSSGF (simulated gastric fluid, fasted), 37°C) is 8 µg/mL (≈ 14 µM); in data set [3] (pH1 buffer, simulated gastric fluid, pH 1, 37°C), 558 µg/mL (≈ 974 µM); in data set [3] (FaSSIF (simulated intestinal fluid, fasted), 37°C) it was 10 µg/mL (≈ 17.4 µM); in data set [3] (FeSSIF (simulated intestinal fluid, fed), 37°C), 209 µg/mL (≈ 365 µM).
